Test [1] addresses T1, TP A160V/F115A double mutant (Homo sapiens, UniProt P21731, A160V/F115A).
T1 sequence (P21731 1-343 F115A/A160V): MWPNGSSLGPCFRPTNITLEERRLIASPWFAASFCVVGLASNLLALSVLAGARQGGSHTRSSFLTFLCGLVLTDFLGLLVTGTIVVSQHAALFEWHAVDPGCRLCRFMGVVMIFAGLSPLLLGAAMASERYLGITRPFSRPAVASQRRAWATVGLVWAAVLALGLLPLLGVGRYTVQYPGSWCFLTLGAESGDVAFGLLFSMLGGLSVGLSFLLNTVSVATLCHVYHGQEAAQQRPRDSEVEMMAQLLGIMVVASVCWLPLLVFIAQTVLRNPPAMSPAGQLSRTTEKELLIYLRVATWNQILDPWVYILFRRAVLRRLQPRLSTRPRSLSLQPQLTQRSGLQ
The test can be described thus: Saturation radioligand binding with [3H] SQ 29,548, membranes. Further details: expressed in transfected cells; host or cells: COS-1 cells (membranes), transient, pMT4. The settings on record: picomoles of TP per milligram of total membrane protein, mean ± S.E. The procedure:
(§1) Amino acid substitutions were introduced into the synthetic TPα gene carried by the expression vector pMT4 as described previously, [29]. DNA sequences of all the mutated genes were verified by automated DNA sequencing. To minimize variations in transfection efficiency, the total amount transfected DNA was kept constant in all cases at 1 µg of DNA per 7×10^5 cells. The wild type TP or mutant genes were expressed in COS-1 cells using a DEAE-dextran based transient transfection method, [29], and in HEK293T cells using lipofectamine 2000 (Invitrogen). Except unless specified, the membranes prepared from COS-1 cells were used for radioligand binding assays and immunoblots. […] The protein concentration in the resuspended membrane pellet was determined using a modified DC protein assay kit from Bio-Rad Laboratories (Hercules, CA).
(§2) These were carried out in Buffer C for 60 min at room temperature, using 2 to 20 µg of membrane protein and different concentrations of [^3H] […] Filter-bound radioactivity was measured using a liquid scintillation counter. Equilibrium dissociation constants (Kd) were determined from saturation isotherms using PRISM software version 5.0 (GraphPad Software Inc, San Diego, CA, USA). The Ki values were calculated from the IC50, using the equation of Cheng and Prusoff by PRISM software version 5.0.

The next test concerns the target T2, TP F115A mutant (Homo sapiens, UniProt P21731, F115A).
T2 sequence (P21731 1-343 F115A): T1 sequence (P21731 1-343 F115A/A160V) with V160A
The description is as above. Further details: expressed in transfected cells; host or cells: COS-1 cells (membranes), transient, pMT4. The settings on record: picomoles of TP per milligram of total membrane protein, mean ± S.E. The procedure:
as §1, §2

Another test concerns the target T3, TP V110A mutant (Homo sapiens, UniProt P21731, V110A).
T3 construct: expressed in transfected cells; HEK293T (calcium assays)
T3 sequence (P21731 1-343 V110A): T1 sequence (P21731 1-343 F115A/A160V) with V110A, A115F, V160A
In words: Intracellular calcium mobilization (Fluo-4NW) in transfected HEK293T cells. The class given is cell-based. The note with it: read-out: EC50 of agonist U46619 (calcium mobilized), transiently transfected HEK293T cells, mean ± S.E. As for the experimental part:
(§3) Amino acid substitutions were introduced into the synthetic TPα gene carried by the expression vector pMT4 as described previously, [29]. DNA sequences of all the mutated genes were verified by automated DNA sequencing. To minimize variations in transfection efficiency, the total amount transfected DNA was kept constant in all cases at 1 µg of DNA per 7×10^5 cells. The wild type TP or mutant genes were expressed in COS-1 cells using a DEAE-dextran based transient transfection method, [29], and in HEK293T cells using lipofectamine 2000 (Invitrogen). Except unless specified, the membranes prepared from COS-1 cells were used for radioligand binding assays and immunoblots. For intracellular calcium determination assays and immunofluorescence imaging, HEK293T cells were used. For transient transfections of HEK293T cells using the plasmid pMT4, lipofectamine 2000 (Invitrogen) mediated transfection was used as described by the manufacturer. Membranes were prepared using Buffers A and B and as described previously, [29]. The protein concentration in the resuspended membrane pellet was determined using a modified DC protein assay kit from Bio-Rad Laboratories (Hercules, CA).
(§4) Changes in intracellular calcium were measured by using the fluorescent calcium sensitive dye Fluo-4NW (Invitrogen). After 6–8 hours of transient transfection of HEK293T cells using lipofectamine 2000, 100,000 viable cells were plated into each well of a 96-well tissue culture treated BD-falcon optilux plates. Cells mock transfected with vector pMT4 alone were used as a negative control. Following 24 hours of incubation at 37°C, the media was removed and cells were incubated with the dye Fluo-4NW (Invitrogen) containing 77 µg/ml of probenecid for 1 hour, as recommended by the manufacturer. […] Dose–response curves were generated and EC50 values calculated by nonlinear regression analysis using PRISM software version 5.0 (GraphPad Software Inc, San Diego, CA) after subtracting the responses of mock-transfected cells stimulated with same concentrations of agonists.

The target in test [2] is T4, WT-TP (wild type human thromboxane A2 receptor TPα) (Homo sapiens, UniProt P21731).
T4 construct: expressed in transfected cells; HEK293T (calcium assays)
T4 sequence (P21731 1-343): T1 sequence (P21731 1-343 F115A/A160V) with A115F, V160A
The test is described as above. The class given is cell-based. The settings on record: read-out: EC50 of agonist U46619 (calcium mobilized), transiently transfected HEK293T cells, mean ± S.E. The procedure: as §3, §4

This is an account of results in article PMC3260207, “Site-Directed Mutations and the Polymorphic Variant Ala160Thr in the Human Thromboxane Receptor Uncover a Structural Role for Transmembrane Helix 4” (PLoS ONE, 2012).

Substitutions are numbered along the chain they refer to. Values joined by “and” are separate entries in the source; they are usually repeats but may differ in a detail not shown here. Identical values can stand only once.

As to `O=C(O)CCC/C=C\C[C@@H]1[C@H](CNNC(=O)Nc2ccccc2)[C@H]2CC[C@@H]1O2` [SQ 29,548], the “Bmax, binding maximum of the ligand SQ 29,548 for the receptor” value was 2.1 ± 0.4 pmol/mg in test [1] and 1.8 ± 0.2 pmol/mg on TP F115A mutant.
In the case of `CCCCC[C@H](O)/C=C/[C@@H]1[C@@H](C/C=C\CCCC(=O)O)[C@H]2CO[C@@H]1C2` [U46619], the EC50 was 2.7 ± 0.2 nM at TP V110A mutant; 13 nM and 13.1 nM in test [2].
